What was measured:
[1] = target: T1, porcine pancreatic lipase (Sus scrofa, UniProt P00591); experiment: Pancreatic lipase activity assay (p-nitrophenylbutyrate hydrolysis); assay type: biochemical; details: for IC50: mean ± SD of three replicates, regression analysis, read-out: Pancreatic lipase inhibitory activity IC50
T1 construct: purchased Sigma, St. Louis, MO, USA
T1 sequence (P00591 1-450): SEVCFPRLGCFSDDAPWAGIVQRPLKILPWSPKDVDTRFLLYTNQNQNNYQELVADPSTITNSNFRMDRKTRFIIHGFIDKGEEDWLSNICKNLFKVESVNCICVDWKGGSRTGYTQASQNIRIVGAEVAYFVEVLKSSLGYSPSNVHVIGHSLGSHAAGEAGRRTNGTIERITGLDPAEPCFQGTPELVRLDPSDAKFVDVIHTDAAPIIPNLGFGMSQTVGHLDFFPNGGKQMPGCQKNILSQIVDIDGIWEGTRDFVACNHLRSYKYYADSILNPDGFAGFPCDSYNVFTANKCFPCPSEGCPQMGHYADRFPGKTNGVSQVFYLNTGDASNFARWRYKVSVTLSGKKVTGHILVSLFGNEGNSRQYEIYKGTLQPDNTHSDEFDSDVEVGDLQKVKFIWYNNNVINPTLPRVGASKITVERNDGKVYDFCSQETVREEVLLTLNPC
Description: A previously reported method, with a minor modification, was used for evaluation of the ability of the compounds to inhibit porcine pancreatic lipase. Briefly, an enzyme buffer was prepared by addition of 30 μL (10 units) of a solution of porcine pancreatic lipase (Sigma, St. Louis, MO, USA) in 10 mM morpholinepropanesulphonic acid (MOPS) and 1 mM EDTA (pH 6.8) to 850 μL of Tris buffer (100 mM Tris-HC1 and 5 mM CaCl2, pH 7.0). […] Inhibition of lipase activity was expressed as the percentage decrease in the optical density (OD) when porcine pancreatic lipase was incubated with the test compounds.

3T3-L1 cells = experiment: Assay of adipocyte differentiation in 3T3-L1 cells (Oil Red O staining); assay type: cell-based; details: Mus musculus, 3T3-L1, 50 μM, treated throughout the differentiation period; read-out: Inhibition of lipid deposition (lipid accumulation)
Description: Of particular interest, a certain degree of galloylation on the glucose moiety of these active molecules appears to be required for potent inhibitory activity. […] The non-toxic concentrations of the tested compounds were established in 3T3-L1 preadipocytes using concentrations of 50, 25, and 10 μM. After two days of incubation, an MTT assay was performed for measurement of cell viability; according to the results, no cytotoxic effect was detectable for any of the tested compounds in concentrations up to 50 μM. […] 3T3-L1 mouse embryo fibroblasts were cultured in DMEM supplemented with 10% FBS until reaching confluence. Two days after reaching confluence (day 0), to initiated differentiation, cells were stimulated with differentiation medium containing DMEM with 10% FBS, 0.5 mM 3-isobutyl-1-methylxanthine, 1 μM insulin and 1 μM dexamethasone for two days (day 2). […] All media contained 100 IU/mL penicillin and 100 μg/mL streptomycin. Cells were maintained at 37 °C in a humidified atmosphere of 95% air-5% CO2. Throughout the culture period (days 0–8), the cultures were treated with test samples for general experiments, with a slight modification. […] For quantitative analysis, Oil Red O staining was dissolved with isopropyl alcohol and optical density was measured at 500 nm using an ELISA plate reader.

With `C[C@H]1O[C@H](C)[C@@H](O)C2=C1C(=O)c1c(O)cc(O)c(-c3c4c(c(O)c5c(O[C@@H]6O[C@H](CO)[C@@H](O)[C@H](O)[C@H]6O)cc(O)cc35)[C@@H](C)O[C@H](C)[C@H]4O)c1C2=O` [Compound 1, protoaphin-fb] the IC50 [1] was 30.6 ± 2.4 µM.

`O=C(OC[C@H]1O[C@@H](OC(=O)c2cc(O)c(O)c(O)c2)[C@H](OC(=O)c2cc(O)c(O)c(OC(=O)c3cc(O)c(O)c(O)c3)c2)[C@@H](OC(=O)c2cc(O)c(O)c(O)c2)[C@@H]1OC(=O)c1cc(O)c(O)c(O)c1)c1cc(O)c(O)c(O)c1` [Compound 2, 2-O-digalloyl-1,3,4,6-tetra-O-galloyl-β-D-glucose] gave an IC50 [1] of 3.5 ± 0.5 µM and an inhibition at 50 µM (3T3-L1 cells) of 64%.

With `O=C(OC[C@H]1O[C@@H](OC(=O)c2cc(O)c(O)c(O)c2)[C@H](OC(=O)c2cc(O)c(O)c(O)c2)[C@@H](OC(=O)c2cc(O)c(O)c(O)c2)[C@@H]1OC(=O)c1cc(O)c(O)c(O)c1)c1cc(O)c(O)c(O)c1` [Compound 3, 1,2,3,4,6-penta-O-galloyl-β-D-glucose] the IC50 [1] was 15.9 ± 1 µM.

`O=C(OC[C@H]1O[C@@H](OC(=O)c2cc(O)c(O)c(O)c2)[C@H](OC(=O)c2cc(O)c(O)c(O)c2)[C@@H](O)[C@@H]1OC(=O)c1cc(O)c(O)c(O)c1)c1cc(O)c(O)c(O)c1` [Compound 4, 1,2,4,6-tetra-O-galloyl-β-D-glucose] showed an IC50 [1] of 23.2 ± 1.8 µM.

With `COC(=O)c1cc(O)c(O)c(O)c1` [Compound 6, methylgallate] the “Pancreatic lipase inhibition, result in words” value [1] was “inactive” and the IC50 [1] was > 300 µM.

In the case of `O=C(O)c1cc(O)c(O)c(O)c1` [Compound 7, gallic acid], the “Pancreatic lipase inhibition, result in words” value [1] is reported as “inactive” and the IC50 [1] is reported as > 300 µM.

Source: PMC6269876, “Pancreatic Lipase Inhibitory Gallotannins from Galla Rhois with Inhibitory Effects on Adipocyte Differentiation in 3T3-L1 Cells” (Molecules, 2013)
